Measured values from patent publication US20140135319A1, “6-SUBSTITUTED IMIDAZOPYRAZINES FOR USE AS MPS-1 AND TKK INHIBITORS IN THE TREATMENT OF HYPERPROLIFERATIVE DISORDERS” (BAYER INTELLECTUAL PROPERTY GMBH, priority 2010, published 2014).

Molecular target: T1, human kinase Mps-1 (Homo sapiens, UniProt P33981)
T1 construct: N-terminally GST-tagged human full length recombinant Mps-1 kinase; GST (N); purchased Invitrogen, Karslruhe, Germany PV4071
T1 sequence (P33981 1-857): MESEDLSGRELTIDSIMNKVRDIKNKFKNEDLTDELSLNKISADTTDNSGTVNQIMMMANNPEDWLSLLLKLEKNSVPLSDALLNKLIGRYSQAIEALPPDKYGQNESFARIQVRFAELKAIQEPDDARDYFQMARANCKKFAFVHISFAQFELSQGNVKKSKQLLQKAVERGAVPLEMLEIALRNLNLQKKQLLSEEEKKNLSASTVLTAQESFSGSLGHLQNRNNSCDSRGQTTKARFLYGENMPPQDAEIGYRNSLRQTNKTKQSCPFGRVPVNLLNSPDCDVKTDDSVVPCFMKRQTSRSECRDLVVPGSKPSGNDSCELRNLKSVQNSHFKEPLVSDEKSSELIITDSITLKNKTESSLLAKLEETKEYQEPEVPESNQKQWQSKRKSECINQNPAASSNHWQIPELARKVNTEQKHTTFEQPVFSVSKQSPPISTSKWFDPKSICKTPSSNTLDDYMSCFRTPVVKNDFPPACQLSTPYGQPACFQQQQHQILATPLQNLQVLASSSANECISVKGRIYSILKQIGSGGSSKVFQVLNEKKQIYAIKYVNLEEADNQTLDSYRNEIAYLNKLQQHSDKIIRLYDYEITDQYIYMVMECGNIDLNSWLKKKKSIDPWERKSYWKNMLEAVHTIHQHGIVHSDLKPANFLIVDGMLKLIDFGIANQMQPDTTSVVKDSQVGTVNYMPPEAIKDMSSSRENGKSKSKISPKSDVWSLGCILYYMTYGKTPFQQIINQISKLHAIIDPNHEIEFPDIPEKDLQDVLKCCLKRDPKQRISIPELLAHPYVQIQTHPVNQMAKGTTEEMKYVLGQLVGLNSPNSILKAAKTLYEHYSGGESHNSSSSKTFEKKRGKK
Test: Mps-1 kinase assay (TR-FRET)
Format: biochemical
Details: GST-tagged human full length recombinant Mps-1; 10 μM ATP; 1 μM peptide substrate; 60 min at 22° C.
Description: The human kinase Mps-1 phosphorylates a biotinylated substrate peptide. Detection of the phosphorylated product is achieved by time-resolved fluorescence resonance energy transfer (TR-FRET) from Europium-labelled anti-phospho-Serine/Threonine antibody as donor to streptavidin labelled with cross-linked allophycocyanin (SA-XLent) as acceptor. Compounds are tested for their inhibition of the kinase activity.
N-terminally GST-tagged human full length recombinant Mps-1 kinase (purchased from Invitrogen, Karslruhe, Germany, cat. no PV4071) was used. As substrate for the kinase reaction a biotinylated peptide of the amino-acid sequence […] (C-terminus in amide form, purchased from Biosynthan GmbH, Berlin) was used.
The concentration of Mps-1 in the assay was adjusted to the activity of the enzyme lot and was chosen appropriate to have the assay in the linear range, typical enzyme concentrations were in the range of about 1 nM (final conc. in the 5 μl assay volume).
The resulting mixture was incubated 1 h at 22° C. to allow the binding of the phosphorylated peptide to the anti-phospho(Ser/Thr)-Europium-antibody. Subsequently the amount of phosphorylated substrate was evaluated by measurement of the resonance energy transfer from the Europium-labelled anti-phospho(Ser/Thr) antibody to the Streptavidin-XLent. Therefore, the fluorescence emissions at 620 nm and 665 nm after excitation at 350 nm was measured in a Viewlux TR-FRET reader (PerkinElmer LAS, Rodgau-Jügesheim, Germany). The “blank-corrected normalized ratio” (a Viewlux specific readout, similar to the traditional ratio of the emissions at 665 nm and at 622 nm, in which blank and Eu-donor crosstalk are subtracted from the 665 nm signal before the ratio is calculated) was taken as the measure for the amount of phosphorylated substrate.

| Compound | IC50 [nM] |
| --- | --- |
| COc1ncc(-c2cn3c(-c4ccc(C(=O)NC5CC5)cc4)cnc3c(NCC(C)C)n2)cn1 [Example 1-3, N-cyclopropyl-4-{6-(2-methoxypyrimidin-5-yl)-8-[(2-methylpropyl)amino]imidazo[1,2-a]pyrazin-3-yl}benzamide] | 12.7 |
| CC(C)CNc1nc(-c2ccnc3ccccc23)cn2c(-c3ccc(C(=O)NC4CC4)cc3)cnc12 [Example 1-4, N-cyclopropyl-4-{8-[(2-methylpropyl)amino]-6-(quinolin-4-yl)imidazo [1,2-a]pyrazin-3-yl} benzamide] | 3.3 |
| CC(C)CNc1nc(-c2cnn(C)c2)cn2c(-c3ccc(C(=O)NC4CC4)cc3)cnc12 [Example 1-8, N-cyclopropyl-4-{8-[(2-methylpropyl)amino]-6-(1-methyl-1H-pyrazol-4-yl)imidazo[1,2-a]pyrazin-3-yl}benzamide] | 4.6 |
| CC(C)CNc1nc(-c2ccnn2C)cn2c(-c3ccc(C(=O)NC4CC4)cc3)cnc12 [Example 1-13, N-cyclopropyl-4-{8-[(2-methylpropyl)amino]-6-(1-methyl-1H-pyrazol-5-yl)imidazo[1,2-a]pyrazin-3-yl}benzamide] | 29.5 |
| CC(C)CNc1nc(-c2cncnc2)cn2c(-c3ccc(C(=O)NC4CC4)cc3)cnc12 [Example 1-17, N-cyclopropyl-4-{8-[(2-methylpropyl)amino]-6-(pyrimidin-5-yl)imidazo [1,2-a]pyrazin-3-yl} benzamide] | 16.5 |
| CC(=O)NCc1ccc(-c2cn3c(-c4ccc(C(=O)NC5CC5)cc4)cnc3c(NCC(C)C)n2)cc1 [Example 1-18, 4-(6-{4-[(acetylamino)methyl]phenyl}-8-[(2-methylpropyl)amino]imidazo[1,2-a]pyrazin-3-yl)-N-cyclopropyl-benzamide] | 1.6 |
| CC(C)CNc1nc(-c2ccc3nccn3c2)cn2c(-c3ccc(C(=O)NC4CC4)cc3)cnc12 [Example 1-19, N-cyclopropyl-4-{6-(imidazo[1,2-a]pyridin-6-yl)-8-[(2-methylpropyl)amino]imidazo[1,2-a]pyrazin-3-yl}benzamide] | 2.2 |
| CC(C)CNc1nc(-c2cncc(F)c2)cn2c(-c3ccc(C(=O)NC4CC4)cc3)cnc12 [Example 1-21, N-cyclopropyl-4-{6-(5-fluoropyridin-3-yl)-8-[(2-methylpropyl)amino]imidazo[1,2-a]pyrazin-3-yl}benzamide] | 19.4 |
| Cc1nnc(-c2ccc(-c3cn4c(-c5ccc(C(=O)NC6CC6)cc5)cnc4c(NCC(C)C)n3)cc2)o1 [Example 1-22, N-cyclopropyl-4-{6-[4-(5-methyl-1,3,4-oxadiazol-2-yl)phenyl]-8-[(2-methylpropyl)amino]imidazo[1,2-a]pyrazin-3-yl}benzamide] | 2.3 |
| CC(C)CNc1nc(-c2ccc(S(=O)(=O)n3cccc3)cc2)cn2c(-c3ccc(C(=O)NC4CC4)cc3)cnc12 [Example 1-23, N-cyclopropyl-4-{8-[(2-methylpropyl)amino]-6-[4-(1H-pyrrol-1-yl-sulonyl)phenyl]imidazo [1,2-a]pyrazin-3-yl} benzamide] | 13.1 |
| CC(C)CNc1nc(-c2cncc(C(=O)NC(C)(C)C)c2)cn2c(-c3ccc(C(=O)NC4CC4)cc3)cnc12 [Example 1-24, N-tert-butyl-5-{3-[4-(cyclopropylcarbamoyl)phenyl]-8-[(2-methyl-propyl)amino]imidazo [1,2-a]pyrazin-6-yl} pyridine-3-carboxamide] | 19.4 |
| CC(=O)Nc1ccc(-c2cn3c(-c4ccc(C(=O)NC5CC5)cc4)cnc3c(NCC(C)C)n2)cn1 [Example 1-25, 4-{6-[6-(acetylamino)pyridin-3-yl]-8-[(2-methyl-propyl)amino]imidazo [1,2-a]pyrazin-3-yl}-N-cyclopropylbenzamide] | 8.9 |

Results, then the compound that gave them:

| IC50 [nM] | Compound |
| --- | --- |
| 1.8 | CC(C)CNc1nc(-c2ccncc2)cn2c(-c3ccc(C(=O)NC4CC4)cc3)cnc12 [Example 1-1, N-cyclopropyl-4-{8-[(2-methylpropyl)amino]-6-(pyridin-4-yl)imidazo[1,2-a]pyrazin-3-yl}benzamide] |
| 43.8 | CC(C)CNc1nc(-c2cnc3ccccc3c2)cn2c(-c3ccc(C(=O)NC4CC4)cc3)cnc12 [Example 1-2, N-cyclopropyl-4-{8-[(2-methylpropyl)amino]-6-(quinolin-3-yl)imidazo [1,2-a]pyrazin-3-yl} benzamide] |
| 4.2 | CC(C)CNc1nc(-c2ccc(F)nc2)cn2c(-c3ccc(C(=O)NC4CC4)cc3)cnc12 [Example 1-5, N-cyclopropyl-4-{6-(6-fluoropyridin-3-yl)-8-[(2-methylpropyl)amino]imidazo[1,2-a]pyrazin-3-yl}benzamide] |
| 6.8 | CC(C)CNc1nc(-c2ccc3c(ccn3C)c2)cn2c(-c3ccc(C(=O)NC4CC4)cc3)cnc12 [Example 1-6, N-cyclopropyl-4-{6-(1-methyl-1H-indol-5-yl)-8-[(2-methylpropyl)amino]imidazo[1,2-a]pyrazin-3-yl}benzamide] |
| 4.2 | CC(C)CNc1nc(-c2ccnc(Cl)c2)cn2c(-c3ccc(C(=O)NC4CC4)cc3)cnc12 [Example 1-7, 4-{6-(2-chloropyridin-4-yl)-8-[(2-methylpropyl)amino]imidazo[1,2-a]pyrazin-3-yl}-N-cyclo-propylbenzamide] |
| 8 | CC(C)CNc1nc(-c2cccs2)cn2c(-c3ccc(C(=O)NC4CC4)cc3)cnc12 [Example 1-9, N-cyclopropyl-4-{8-[(2-methylpropyl)amino]-6-(thiophen-2-yl)imidazo [1,2-a]pyrazin-3-yl} benzamide] |
| 3.4 | CC(C)CNc1nc(-c2ccsc2)cn2c(-c3ccc(C(=O)NC4CC4)cc3)cnc12 [Example 1-10, N-cyclopropyl-4-{8-[(2-methylpropyl)amino]-6-(thiophen-3-yl)imidazo [1,2-a]pyrazin-3-yl} benzamide] |
| 78.8 | CC(C)CNc1nc(-c2cc3ccccc3o2)cn2c(-c3ccc(C(=O)NC4CC4)cc3)cnc12 [Example 1-11, 4-{6-(1-benzofuran-2-yl)-8-[(2-methylpropyl)amino]imidazo[1,2-a]pyrazin-3-yl}-N-cyclo-propylbenzamide] |
| 142 | CC(C)CNc1nc(-c2cc3ccccc3s2)cn2c(-c3ccc(C(=O)NC4CC4)cc3)cnc12 [Example 1-12, 4-{6-(1-benzothiophen-2-yl)-8-[(2-methylpropyl)amino]imidazo[1,2-a]pyrazin-3-yl}-N-cyclo-propylbenzamide] |
| 6.9 | CC(C)CNc1nc(-c2csc3ccccc23)cn2c(-c3ccc(C(=O)NC4CC4)cc3)cnc12 [Example 1-14, 4-{6-(1-benzothiophen-3-yl)-8-[(2-methylpropyl)amino]imidazo[1,2-a]pyrazin-3-yl}-N-cyclo-propylbenzamide] |
| 55.4 | Cc1ccc(-c2cn3c(-c4ccc(C(=O)NC5CC5)cc4)cnc3c(NCC(C)C)n2)s1 [Example 1-15, N-cyclopropyl-4-{8-[(2-methylpropyl)amino]-6-(5-methylthiophen-2-yl)imidazo[1,2-a]pyrazin-3-yl}benzamide] |
| 104 | Cc1ccc2sc(-c3cn4c(-c5ccc(C(=O)NC6CC6)cc5)cnc4c(NCC(C)C)n3)cc2c1 [Example 1-16, N-cyclopropyl-4-{6-(5-methyl-1-benzothiophen-2-yl)-8-[(2-methylpropyl)amino]imidazo[1,2-a]pyrazin-3-yl}benzamide] |
| 2.9 | Cc1ccc(-c2cn3c(-c4ccc(C(=O)NC5CC5)cc4)cnc3c(NCC(C)C)n2)cn1 [Example 1-20, N-cyclopropyl-4-{8-[(2-methylpropyl)amino]-6-(6-methylpyridin-3-yl)imidazo[1,2-a]pyrazin-3-yl}benzamide] |
